The values below come from patent US7094759B2, “Oral modified SSP-5 antibacterial composition” (GC Corporation, priority 2003, dated 2006).

Holding throughout (assay): Adhesion suppressing properties on saliva treatment sensor chip (BIAcore)
Common to all, as to settings: peptide solution 1 mg/mL in PBS pH7.4

One test concerns S. sanguis (ATCC10556). Format: binding, Streptococcus sanguis. As to the method:
(§1) S. sanguis (ATCC10556, ATCC10558), S. mutans (ATCC25175) were used as intraoral bacteria. All bacteria were cultured under an anaerobic conditions using Brain Heart Infusion broth (BHI; Difco Lavoratory, Detroit, Mich.) as a culture medium.
(§2) The specimen was stimulus saliva secreted by biting paraffine wax for 3 minutes by 3 subjects (A, B, C). The saliva was collected, incubated at 4° C. for 5 minutes, and centrifuged at 10000×g for 10 minutes at 4° C. Then, the supernatant was used the saliva specimen.
(§3) The adhesion suppressing properties of bacteria was confirmed by using a sensor chip as a substitute for a tooth. As the sensor chip, Pioneer Sensor Chip F1 (produced by BIAcore Company) was used. The sensor chip F1 was activated at flow speed of […] for 1 minute with 70 μL of 400 mM N-ethyl-N′-(3-diaethylaminoprophyl) carbodiimide and 100 mM N-hydroxy siccinimide solution. Then, the above saliva specimen was diluted 20 times, and bonded on the chip by passing 70 μL of sample over the activated chip. (Hereinafter, this chip was said to as a saliva treatment sensor chip)
(§4) The confirmation method of the adhesion suppressing properties by BIA core™ Biosensor system (produced by BIAcore Company) will be explained. First, each bacteria is passed over the saliva treatment sensor chip at 0.D.=1 (550 nm) and a flow speed of 20 μL/min. Then, the bonding state (Response Unit:RU) between the bacteria and saliva on the surface of the sensor chip was measured. The sensor chip was not carried out the peptide treatment.
(§5) Then, to the other saliva treatment sensor chip, which was different from the saliva treatment sensor chip adhered with bacteria, a modified SSP-5(390–402) peptide solution (1 mg/mL) dissolved with a phosphate buffer solution (PBS, pH7.4) was passed over the sensor chip at flow speed of 10 μL/min, and the surface of the saliva treatment sensor chip was treated with the peptide. Then, each bacteria was passed over the chip at 0.D.=1 (550 nm) and flow speed of 20 μL/min, and the bonding state (Response Unit:RU) between each bacteria and saliva on the sensor surface was measured. The final bacterium adhesion suppressing ratio by the peptide treatment was measured using the following formula 1. Adhesion suppressing ratio=100×{[Bonding state between bacteria and saliva (RU)]−[Bonding state between bacteria and saliva (after the peptide treatment) (RU)]}/[Bonding state between bacteria and saliva (RU)] [Formula 1]

The next test has as its system S. sanguis (ATCC10558). It counts as binding, Streptococcus sanguis. As to the method:
as §1, §2, §3, §4, §5

The subject of the next test is S. mutans (ATCC25175). Format: binding, Streptococcus mutans. As to the method:
as §1, §2, §3
The confirmation method of the adhesion suppressing properties by BIA core™ Biosensor system (produced by BIAcore Company) will be explained. […] Then, the bonding state (Response Unit:RU) between the bacteria and saliva on the surface of the sensor chip was measured. […]
as §5, with “Adhesion suppressing ratio=100×{[Bonding state between bacteria and saliva (RU)]−[Bonding state between bacteria and saliva (after the peptide treatment) (RU)]}/[Bonding state between bacteria and saliva (RU)] [Formula 1]” left out

“modified SSP-5(390–402): Modified fragment (390–402) of Streptococcus sanguis surface protein SSP-5; position 400 (residue 11 of SEQ ID NO: 1) is threonine”: the “Adhesion suppressing ratio S. sanguis (ATCC10556)” value in the test on S. sanguis (ATCC10556) (saliva sample A) worked out at 61%; in the test with S. sanguis (ATCC10556) (saliva sample B), 57%; with S. sanguis (ATCC10556) (saliva sample C), 65%. Further, the “Adhesion suppressing ratio S. sanguis (ATCC10558)” value in the test with S. sanguis (ATCC10558) (saliva sample A) was determined as 59%; in the test on S. sanguis (ATCC10558) (saliva sample B), 63%; with S. sanguis (ATCC10558) (saliva sample C) it was 61%. For the same substance, the “Adhesion suppressing ratio S. mutans (ATCC25175)” value is recorded as 55% with S. mutans (ATCC25175) (saliva sample A), 60% in the test with S. mutans (ATCC25175) (saliva sample B) and 58% with S. mutans (ATCC25175) (saliva sample C).
